Laboratory results from patent US9132131B2, “Use of adenosine A3 receptor agonists for treatment of neuropathic pain” (Saint Louis University, priority 2011, dated 2015).

Columns and labels:
[1] = system: SKBR3 breast cancer cells; assay: MTT cell survival assay, SKBR3; format: cell-based, human
Procedure: Cells were cultured and assayed in DMEM (SKBR3; human breast cancer cells), L15 (SW480; human colon cancer cells) or RPMI […] (RPMI 8226; human multiple myeloma cells) supplemented with heat-denatured 10% FBS and penicillin/streptomycin at 37° C., 0% (SW480) or 5% CO2 (SKBR3 and RPMI 8226), 95% humidity. The antitumor activities of these agents were measured in cells (6.25×10^4 cells/well) cultured overnight in 24-well plates (SKBR3 and SW480; BD Biosciences) or 12 mm×7.5 mm culture tubes (RPMI 8226; BD Biosciences) in complete media. […] Two naïve control wells were included as a control for 100% survival. Cell survival was determined using a MTT (3-(4,5-dimethylthiazol-2-yl)-2,5-diphenyltetrazolium bromide) assay adapted from a previously described assay. Cells were incubated with MTT (500 μg/ml) for 75 minutes at 37° C., 0% or 5% CO2, 95% humidity, removing the media and dissolving the tetrazolium crystals in isopropanol. […] The antitumor effects of IB-MECA alone were determined as % Survivability=(A560-570 nm of chemotherapeutic vehicle+IB-MECA)/(mean A560-570 nm of the naïve control wells)×100. The LD50 of each chemotherapeutic agent+IB-MECA or its vehicle was calculated using three-parameter non-linear analysis using % Survivability=(A560-570 nm of chemotherapeutic+IB-MECA or its vehicle)/(mean A560-570 nm chemotherapeutic vehicle+vehicle of IB-MECA)×100. The top and bottom plateaus were constrained using GraphPad Prism v5.03 (GraphPad Software, Inc.).

[2] = system: acute nociception (tail flick latency); assay: Tail flick assay for acute nociception; format: in vivo, mice; conditions: IB-MECA, MRS1898 0.5 μmol/kg i.p. at 30, 60, 120 minutes; morphine 35 μmol/kg s.c. positive control
Procedure: Tail flick and hot plate assay in mice for acute nociception. The tail flick test, which measures latency(s) of tail withdrawal from a noxious radiant heat source (Ugo Basile; model number 37360) was used to measure thermal nociceptive sensitivity in mice with baseline latencies of 3-5 seconds and a cut-off time of 15 seconds to prevent tissue injury. Tail flick latencies were taken before and at 30, 60 and 120 minutes after i.p. injection of IB-MECA, MRS1898 (0.5 μmol/kg) or its vehicle (0.1% DMSO in saline). For the hot plate test, nociceptive thresholds were determined as previously reported by our group by measuring latencies (in seconds) of mice placed in a transparent glass cylinder on a hot plate maintained at 52° C.. Responses indicative of nociception included intermittent lifting and/or licking of the hindpaws or escape behavior. Hot plate latencies were taken in mice from all groups before and after drug administration. A cut-off latency of 15 seconds was employed to prevent tissue damage.

[3] = system: oxaliplatin-induced neuropathic pain; assay: Oxaliplatin-induced neuropathic pain (mechano-allodynia, mechano-hyperalgesia); format: in vivo, rats
[4] = system: paclitaxel-induced neuropathic pain; assay: Paclitaxel-induced neuropathic pain (mechano-allodynia, mechano-hyperalgesia); format: in vivo, rats

CNC(=O)[C@H]1O[C@@H](n2cnc3c(NCc4cccc(I)c4)ncnc32)[C@H](O)[C@@H]1O [IB-MECA, N^6-(3-iodobenzyl)-adenosine-5′-N-methyluronamide]
effect on the antitumor effects of paclitaxel, oxaliplatin or bortezomib ([1]; IB-MECA 10 nM, human breast, colon and multiple myeloma cancer cells): did not diminish
decrease in cell survival when used alone ([1]; IB-MECA 10 nM, stated for the cell lines tested (SKBR3, SW480, RPMI 8226)): < 20%
effect of higher doses on the cell lines ([1]; doses above 10 nM, all three cell lines): direct antitumor effects
effect on tail flick latency [2]: lacked effect
effect on development of oxaliplatin-induced neuropathic pain ([3]; 0.02-0.2 μmol/kg/d D0-D17): attenuated dose-dependently
neuropathic pain upon drug termination ([3]; oxaliplatin model, through D25): did not emerge upon drug termination
D17 ED50, prevention of oxaliplatin-induced mechano-allodynia ([3]; rats, daily D0-D17): 0.05 µmol/kg/day
D17 ED50, prevention of oxaliplatin-induced mechano-hyperalgesia ([3]; rats, daily D0-D17): 0.06 µmol/kg/day
effect on paclitaxel-induced neuropathic pain ([4]; 0.02-0.2 μmol/kg/d i.p. D0-D15): dose-dependently attenuated
effect on PWT when administered alone (vehicle groups) ([4]; IB-MECA 0.2 μmol/kg/d in any of the chemotherapy models, MRS1523 5 μmol/kg/d): did not affect PWT
neuropathic pain after discontinuation of treatment on D15 ([4]; paclitaxel model, followed through D25): did not emerge through D25
D16 ED50, prevention of paclitaxel-induced mechano-allodynia ([4]; rats, daily i.p. D0-D15): 0.02 µmol/kg/day
D16 ED50, prevention of paclitaxel-induced mechano-hyperalgesia ([4]; rats, daily i.p. D0-D15): 0.03 µmol/kg/day
